Results as given in patent US8163795B2, “Chroman derivatives, medicaments and use in therapy” (Marshall Edwards, Inc., priority 2004, dated 2012).
Read-outs that look alike come from different tables or passages of the source.

Tests used:
[1] = system: CP70 ovarian cancer cell line; experiment: Proliferation assay (MTT); assay type: cell-based; conditions: Ovarian CP70, read-out: IC50
CCRF-CEM (Leukemic) = experiment: Proliferation assay (MTT); assay type: cell-based; conditions: Homo sapiens, CCRF-CEM
Procedure, shortened: (§1)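 IC50 read from semi-log plots of proliferation as % of untreated control against log dose. Exposure lasted 5 days at 37° C, 5% CO2, with 10% FCS; viability detected by 3-4 hrs MTT incubation.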

DU145 (Prostate) = experiment: Proliferation assay (MTT); assay type: cell-based; conditions: Homo sapiens, DU-145, Table 2.1
Procedure, shortened: as §1

HCT-15 (Colorectal) = experiment: Proliferation assay (MTT); assay type: cell-based; conditions: Homo sapiens; Table 2.1; Colorectal HCT-15
Procedure, shortened: as §1

HT-29 (Colorectal) = experiment: Proliferation assay (MTT); assay type: cell-based; conditions: Homo sapiens, Colorectal HT-29
Procedure, shortened: as §1

HTB-138 (Glioma) = experiment: Proliferation assay (MTT); assay type: cell-based; conditions: Table 2.1; Glioma HTB-138
Procedure, shortened: as §1

NCI-H23 (Lung) = experiment: Proliferation assay (MTT); assay type: cell-based; conditions: Homo sapiens, Table 2.1
Procedure, shortened: as §1

[2] = system: PC3 prostate cancer cell line; experiment: Proliferation assay (MTT); assay type: cell-based
Procedure, shortened: as §1

RM melanoma cell line = experiment: Proliferation assay (MTT); assay type: cell-based; conditions: Table 15
Procedure, shortened: as §1

[3] = system: SKMe128 melanoma cell line; experiment: Proliferation assay (MTT); assay type: cell-based; conditions: Table 15
Procedure, shortened: as §1

A2058 melanoma cell line = experiment: Proliferation assay (MTT); assay type: cell-based; conditions: Homo sapiens
[4] = system: TRAIL-sensitive and -resistant melanoma cells; experiment: Apoptosis incidence, statements over several melanoma cell lines; assay type: cell-based; conditions: for incidence of apoptosis: 4 μM
MM200 melanoma cell line = experiment: HMC combination with cisplatin (synergy); assay type: cell-based; conditions: for IC50: Table 8, single agent
Description: IC50 values were determined for each cell line. Cells were seeded in 96-well plates at an appropriate cell density as determined from growth kinetics analysis and cultured for 5 days in the absence and presence of the test compounds. Cell proliferation was assessed after the addition of 20 μl of 3-4,5 dimethylthiazol-2,5-diphenyl tetrazolium bromide (MTT, 2.5 mg/ml in PBS, Sigma) for 3-4 hrs at 37° C. according to manufacturer's instructions. IC50 values were calculated from semi-log plots of % of control proliferation on the y-axis against log dose on the x-axis.
3-D model analysis of the cytotoxic interaction between drug A and drug B enables the representation of predicted inhibitory effect of two drugs in combination in 3 dimensions to reveal actual regions of synergy or antagonism. The 3D synergy plots are based on a theory of “Theretical Additivity” (TA) as outlined by Kanzawa et al (Int. J. Cancer 71, 311-319 (1997)). Theoretical Additivity was calculated from the cytotoxicities of drug A and drug B as monotherapies using the following formula which assumes the drugs are mutually exclusive inhibitors: […]
The TA is calculated for each combination of drug concentrations and subtracted from the observed experimental effect for each combination to give a measurement of synergisitic action.
HMC synergy with cisplatin was assessed either in combination over 5 days exposure or in sequence (HMC→cisplatin) against the MM200 melanoma cell line. It was difficult to assess for synergisitic toxicity using a change in IC50 as a measure of synergy due to HMC toxicity as monotherapy (Table 8). […] Evidence of synergy using the HMC-cisplatin combination was further assessed using the HMC→cisplatin sequence (24 hr exposure to each compound in sequence) against the melanoma cell line MM200. Using change in IC50 to assess for synergy it was noted that HMC at concentrations of 2 μM markedly chemosensitised the MM200 cells to cisplatin by >1000 fold (Table 8). HMC induced chemosensitisation of MM200 cells to cisplatin was confirmed using 3D analysis of the data (FIG. 11B).

[5] = system: Mel-RM melanoma cell line; experiment: HMC combination with doxorubicin (synergy); assay type: cell-based; conditions: for IC50: Table 12, single agent; for Change Factor (Combined): 5-day combination
Description: IC50 values were determined for each cell line. Cells were seeded in 96-well plates at an appropriate cell density as determined from growth kinetics analysis and cultured for 5 days in the absence and presence of the test compounds. […] IC50 values were calculated from semi-log plots of % of control proliferation on the y-axis against log dose on the x-axis.
3-D model analysis of the cytotoxic interaction between drug A and drug B enables the representation of predicted inhibitory effect of two drugs in combination in 3 dimensions to reveal actual regions of synergy or antagonism. […] Theoretical Additivity was calculated from the cytotoxicities of drug A and drug B as monotherapies using the following formula which assumes the drugs are mutually exclusive inhibitors: […]
HMC synergy with doxorubicin was assessed either in combination over 5 days exposure or in sequence (HMC→doxorubicin) against the Mel-RM melanoma cell line.

PGE2 = experiment: Eicosanoid synthesis in LPS-stimulated murine macrophages (RAW 264.7); assay type: cell-based, mouse; conditions: 10 μM; negative values indicate inhibition
Description: (§2) The mouse macrophage cell line RAW 264.7 was cultured in DMEM supplemented with foetal calf serum (FCS), 2 mM glutamine and 50 U/ml penicillin/streptomycin. Subconfluent cells were detached from the flask by gentle scraping and 24-well plates seeded at 5×10^5 cells per well and allowed to adhere for 1 hr. Cells were then treated either test compound at a concentration of 10 μM (in 0.025% DMSO) or vehicle alone, and incubated for 1 hr. LPS 50 ng/ml (LPS—Sigma-Aldrich) was then added. After incubation for 16 hrs, culture media was collected and stored at −80° C. for ecosanoid measurements using enzyme immunometric assays (PGE2 and TXB2—Cayman Chemical).
(§3) Table 16: Percentage change in eicosanoid synthesis after incubating test compound at 10 μM compared with incubation with vehicle alone.

TXB2 = experiment: as above; assay type: cell-based, mouse; conditions: 10 μM; negative values indicate inhibition
Description: as §2, §3

[6] = 120 h, 5 days exposure, read-out: IC50, Combined (monotherapy)
[7] = 24 hr exposure, read-out: IC50, 24 hr (monotherapy)

COc1ccc(C2c3ccc(O)cc3OCC2c2ccc(O)cc2)cc1 (centres unmarked) [Compound 1, 3-(4-hydroxyphenyl)-4-(4-methoxyphenyl)chroman-7-ol]
IC50 ([1]; Table 2.1): 1210 ± 290 nM
IC50 ([1]; Table 2.2 (further studies)): 2100 nM
IC50 (CCRF-CEM (Leukemic); Table 2.1, Leukemic CCRF-CEM): 1900 nM
IC50 (CCRF-CEM (Leukemic); Table 2.2, Leukaemia CCRF-CEM): 2000 ± 970 nM
IC50 (DU145 (Prostate)): 3780 nM
IC50 (HCT-15 (Colorectal)): 37800 ± 33000 nM
IC50 (HT-29 (Colorectal); HT-29, Table 2.1): 3700 ± 1400 nM
IC50 (HT-29 (Colorectal); HT-29, Table 2.2): 5400 ± 1800 nM
IC50 (HTB-138 (Glioma)): 1900 ± 270 nM
IC50 (NCI-H23 (Lung)): 3750 ± 2500 nM
IC50 ([2]; Table 2.1): 2900 ± 920 nM
IC50 ([2]; Table 2.2): 2500 ± 1000 nM
IC50 (RM melanoma cell line): 1400 ± 1600 nM
IC50 [3]: 680 ± 160 nM
IC50 (A2058 melanoma cell line; A2058, Table 2.1, Melanoma A2058): 1200 ± 650 nM
IC50 (A2058 melanoma cell line; A2058, Table 15, melanoma A2058): 1420 ± 480 nM
apoptosis ([4]; 2 μM, 24 and 48 hrs of exposure, all TRAIL-sensitive and -resistant melanoma cells): 7-10%
incidence of apoptosis ([4]; 24 hr exposure, the other cell lines (not MEL-RM, IGR3)): ~9%
incidence of apoptosis ([4]; 48 hr, all cell lines examined): 21-42%
IC50 (MM200 melanoma cell line; [6]): 720 nM
Change Factor (HMC first) (MM200 melanoma cell line; HMC 1 uM 24 hr then cisplatin 24 hr): −1.31
Change Factor (HMC first) (MM200 melanoma cell line; HMC 2 uM 24 hr then cisplatin 24 hr): >10000
chemosensitisation of MM200 cells to cisplatin (change in IC50) (MM200 melanoma cell line; HMC 2 μM, HMC→cisplatin sequence): > 1000 fold
Change Factor (HMC first) (MM200 melanoma cell line; HMC 5 uM 24 hr then cisplatin 24 hr): >10000
Change Factor (HMC first) (MM200 melanoma cell line; HMC 10 uM 24 hr then cisplatin 24 hr): >10000
IC50 (MM200 melanoma cell line; [7]): 20600 nM
IC50 [5, 6]: 540 nM
Change Factor (HMC first) ([5]; HMC 1 uM 24 hr then doxorubicin 24 hr): 1.62
Change Factor (HMC first) ([5]; HMC 2 uM 24 hr then doxorubicin 24 hr): 12.22
chemosensitisation of Mel-RM cells to camptothecin (change in IC50) ([5]; HMC 2 μM, sequence protocol): ~12 fold
IC50 [5, 7]: 50500 nM
Change Factor (Combined) ([5]; doxorubicin with HMC 1 uM): −2.06
Change Factor (Combined) ([5]; doxorubicin with HMC 2 uM): ?HMC effect
Percentage change in PGE2 synthesis vs vehicle alone (PGE2): −33.8%
Percentage change in TXB2 synthesis vs vehicle alone (TXB2): 0%
